From PubChem BioAssay (NCI)
Values joined by “and” are separate entries in the source; they are usually repeats but may differ in a detail not shown here. Identical values can stand only once.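 Test compounds were applied to cells in 96-well plates for 48 hours at 5 doses. Abbreviation: GI50, concentration required for 50% inhibition of growth. The concentration for full growth arrest is given as TGI.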

Columns and labels:
Assay in all cases: DTP human tumour cell line panel, 48 h
CCRF-CEM leukemia = test system: CCRF-CEM leukemia
M14 melanoma = test system: M14 melanoma
NCI-H23 lung = test system: NCI-H23 lung
NCI/ADR-RES ovarian = test system: NCI/ADR-RES ovarian
OVCAR-8 ovarian = test system: OVCAR-8 ovarian
RPMI-8226 leukemia = test system: RPMI-8226 leukemia
SK-MEL-28 melanoma = test system: SK-MEL-28 melanoma
SNB-19 CNS = test system: SNB-19 CNS
SNB-75 CNS = test system: SNB-75 CNS
TK-10 renal = test system: TK-10 renal

Structure (SMILES) | TGI (CCRF-CEM leukemia) | TGI (M14 melanoma) | TGI (NCI-H23 lung) | TGI (NCI/ADR-RES ovarian) | TGI (OVCAR-8 ovarian) | TGI (RPMI-8226 leukemia) | TGI (SK-MEL-28 melanoma) | TGI (SNB-19 CNS) | TGI (SNB-75 CNS) | TGI (TK-10 renal) | GI50 (CCRF-CEM leukemia) | GI50 (M14 melanoma) | GI50 (NCI-H23 lung) | GI50 (NCI/ADR-RES ovarian) | GI50 (OVCAR-8 ovarian) | GI50 (RPMI-8226 leukemia) | GI50 (SK-MEL-28 melanoma) | GI50 (SNB-19 CNS) | GI50 (SNB-75 CNS) | GI50 (TK-10 renal)
O=c1oc2c(Br)c(O)c(Br)cc2c2ccccc12 | 65.4 µM | > 100 µM | 38.6 µM | 78.1 µM | > 100 µM | 75.4 µM | > 100 µM | 93.4 µM | 78.9 µM | > 100 µM | – | – | – | – | – | – | – | – | – | –
Cn1c(=O)c(Sc2ccccc2F)cc2cnc(NC3CCOCC3)nc21 | > 25 µM | > 25 µM | > 25 µM | > 25 µM | > 25 µM | > 25 µM | > 25 µM | > 25 µM | > 25 µM | > 25 µM | > 25 µM | > 25 µM | > 25 µM | > 25 µM | > 25 µM | > 25 µM | > 25 µM | > 25 µM | > 25 µM | > 25 µM
C=CC[Se]C(=O)c1ccccc1OC(C)=O | 7.06 µM | 3.06 µM | 4.57 µM | 4.4 µM | 3.56 µM | 5.71 µM | 3.53 µM | 1.66 µM | 2.72 µM | – | 2.42 µM | 1.58 µM | 1.95 µM | 1.6 µM | 1.52 µM | 2.22 µM | 1.85 µM | 0.493 µM | 1.38 µM | –
O=C1OCC2=C1C(c1ccccc1)c1cc3c(cc1N2CCO)CCC3 (stereo not drawn) | > 25 µM | 0.351 µM | > 9.91 µM | 0.139 µM | > 25 µM | > 25 µM | > 25 µM | > 12.9 µM | > 25 µM | > 25 µM | 0.117 µM | 0.0722 µM | 0.106 µM | 0.0521 µM | 0.144 µM | 0.106 µM | 0.168 µM | 0.119 µM | 0.0786 µM | 1.52 µM
S=C(Nc1ccc(-c2nc3ccccc3s2)cc1)Nc1ccccn1 | > 100 µM | 60.9 µM | 70.6 µM | 66.6 µM | > 73.9 µM | > 100 µM | > 95.4 µM | > 100 µM | > 51.2 µM | 70.2 µM | 25.5 µM | 25.2 µM | 25.7 µM | 24.6 µM | 32.6 µM | 33.8 µM | 35.3 µM | 36.1 µM | 12 µM | 24.1 µM
COC(=O)c1c2c(c[n+]([O-])c1C)C(=O)C(NCc1ccccc1)=CC2=O | > 25.8 µM | 1.12 µM | 2.6 µM | 1.37 µM | 1.16 µM | 3.79 µM | 3.29 µM | 2.77 µM | 3.27 µM | 7.07 µM | 0.512 µM | 0.297 µM | 0.485 µM | 0.302 µM | 0.311 µM | 0.996 µM | 1.6 µM | 1.46 µM | 1.76 µM | 3.17 µM
COC(=O)C1=C2C3=C(C(=O)c4ccccc4C3=O)N(Cc3ccccc3)C2(OC(C)=O)C=CC1=O (stereo not drawn) | > 100 µM | 34 µM | 76.6 µM | > 100 µM | 83 µM | 8.83 µM | 66.7 µM | > 100 µM | > 100 µM | 33.8 µM | 0.378 µM | 15.2 µM | 11.8 µM | 8.56 µM | 22.4 µM | 1.09 µM | 27.8 µM | 31.3 µM | 40.3 µM | –
CCc1ccc(/C(C#N)=C/C=C/c2ccccc2)cc1 | > 100 µM | > 100 µM | > 100 µM | > 100 µM | > 100 µM | > 69 µM | > 100 µM | > 100 µM | – | > 100 µM | 3.11 µM | 2.24 µM | 6.24 µM | 2.21 µM | 5 µM | 3.41 µM | 7.12 µM | 6.88 µM | – | 5.79 µM
COc1ccc(C2=C(Br)C(=O)OC2)cc1Cl | > 68 µM | > 100 µM | > 100 µM | > 79.2 µM | > 52.7 µM | 48.5 µM | > 93.1 µM | > 100 µM | > 100 µM | 77.9 µM | 21.9 µM | > 53 µM | 29.5 µM | 29.4 µM | 20.2 µM | 17.3 µM | 30.9 µM | 10.6 µM | 55.8 µM | 26.8 µM
COc1cc2c3c(n(CCCN=[N+]=[N-])c(=O)c2cc1OC)-c1ccc(N)cc1C3=O | 1.1 µM | 0.237 µM | 0.73 µM | 1.41 µM | 1.9 µM | 0.446 µM | 2.78 µM | – | 0.69 µM | 3.93 µM | 0.0277 µM | 0.0591 µM | 0.17 µM | 0.316 µM | 0.436 µM | 0.0306 µM | 0.613 µM | 0.125 µM | 0.126 µM | 0.71 µM
CCN1CCN(CCNc2nccc(-c3c(-c4cccc(O)c4)nc4sccn34)n2)S1(=O)=O | 32.5 µM and 46.1 µM | 19.8 µM and 10.8 µM | 32.5 µM and 51.9 µM | 32.5 µM and 86.1 µM | 32.5 µM and > 100 µM | 20.7 µM and 40.8 µM | 32.5 µM and > 100 µM | > 100 µM | 32.5 µM and > 100 µM | 32.5 µM and > 100 µM | 8.83 µM and 5.52 µM | 0.168 µM and 0.142 µM | 12.4 µM | 23.3 µM and 26.5 µM | 16.1 µM and 10.9 µM | 6.37 µM and 16.3 µM | 0.181 µM and 0.13 µM | > 32.5 µM and 71.5 µM | 12.6 µM and 6.84 µM | 19.4 µM and 9.68 µM
Clc1ccc(N/N=C/c2ccccn2)nc1 | > 100 µM | – | > 100 µM | > 100 µM | > 100 µM | 18.7 µM | > 100 µM | > 100 µM | > 45.8 µM | > 100 µM | 0.332 µM | 0.375 µM | 0.579 µM | 0.383 µM | 0.425 µM | 0.462 µM | 0.598 µM | 0.674 µM | 1.74 µM | 0.442 µM
COc1cccc(C2=NN(C(C)=O)C(c3cc(OC)c(OC)c(OC)c3)C2)c1 (stereo not drawn) | 5.61 µM | > 100 µM | > 100 µM | > 20.1 µM | > 100 µM | 4.36 µM | > 100 µM | > 100 µM | > 100 µM | > 100 µM | 0.921 µM | 1.47 µM | 3.48 µM | 1.9 µM | 5.1 µM | 1.08 µM | > 22.8 µM | 3.18 µM | 1.73 µM | 25.8 µM
